In US20250154121A1, “CYCLIC(ALKYL)(AMINO)ALKOXY-SUBSTITUTED ARYL-PYRONE COMPOUND AND USE THEREOF” (priority 2022, published 2025):
“And” between values parts separate entries of the source, which are not always exact repeats. Identical values can stand only once. Like-named read-outs stand apart in the source and are kept apart here.

Key:
[1] = system: Influenza A (H1N1) virus FM1 strain; experiment: Mouse pneumonia model infected with influenza A (H1N1) virus FM1 strain (lung index); format: in vivo, ICR mice
Protocol: ICR mice were taken and randomly divided into: normal control group, model control group, ribavirin control group, compound 4, compound F1, compound F2, and compound F3 according to their weight class, and each drug was given in two dosage groups (10 mice in each group). Except for the normal control group, mice were slightly anesthetized with ether and infected with 15 LD50 H1N1 influenza virus liquid FM1 strain by nasal drops (30 μl per animal). The administration was started on the day of infection at 0.2 ml/10 g by gavage each time once a day for 4 days, and the normal control and model control groups were gavaged with distilled water under the same conditions. The mice were weighed and dissected on Day 5, and the lung was weighed to calculate lung index and lung index inhibition. The results were statistically processed using t-test for comparison between groups.
(§1) ICR mice were taken and randomly divided by weight class: normal control group, model control group, oseltamivir control group, compound 4, compound F4, compound F5, compound 5, and compound 7 according to their weight class, and each drug was given in two dosage groups (10 mice in each group). Except for the normal control group, mice were slightly anesthetized with ether and infected with 15 LD50 H1N1 influenza virus liquid (FM1/PR8 strain) by nasal drops (30 μl per each animal). The administration was started on the day of infection at 0.2 ml/10 g by gavage each time once a day for 4 days, and the normal control and model control groups were gavaged with distilled water under the same conditions. The mice were weighed and dissected on Day 5, and lung was weighed to calculate lung index and lung index inhibition. The results were statistically processed using t-test for comparison between groups.
(§2) ICR mice were taken and randomly divided into 9 groups according to the body weight: a normal control group, model control group, oseltamivir control group, and two dosage groups of Compound 9, Compound 12 and Compound 2, 10 mice in each group. Except the normal control group, mice were slightly anesthetized with ether and infected with 15 LD50 H1N1/PR8 influenza virus liquid by nasal drops at 30 μl per mouse. The administration was started on the day of infection, at 0.2 ml/10 g each time by gavage once a day for 4 days, and the normal control and model control groups were gavaged with distilled water under the same conditions. The mice were weighed and dissected on Day 5, and lungs were weighed to calculate lung index and lung index inhibition. The results were statistically processed using t-test for comparison between groups.

[2] = system: Influenza A (H1N1) virus PR8 strain; experiment: Mouse pneumonia model infected with influenza A (H1N1) virus PR8 strain (lung index); format: in vivo, ICR mice; conditions: Table 3 (Example 14)
Protocol: as §1, §2

[3] = system: Human Coronavirus 229E (HCoV-229E); experiment: animal or person; format: in vivo
human coronavirus OC43 = format: in vivo; conditions: Table 6 (Example 17)
[4] = system: Sendai strain of parainfluenza virus; format: in vivo
SARS-CoV-2 = experiment: Antiviral CPE assay against SARS-CoV-2 in VeroE6 cells; format: cell-based; conditions: 100 TCID50, read-out: Inhibition rate (%) of viral CPE
ACE2 receptor = ACE2 receptor (Homo sapiens, UniProt Q9BYF1); experiment: ACE2-293T/CMC cell membrane chromatography binding; conditions: ACE2-293T/CMC column
ACE2 receptor, sequence (Q9BYF1 18-805): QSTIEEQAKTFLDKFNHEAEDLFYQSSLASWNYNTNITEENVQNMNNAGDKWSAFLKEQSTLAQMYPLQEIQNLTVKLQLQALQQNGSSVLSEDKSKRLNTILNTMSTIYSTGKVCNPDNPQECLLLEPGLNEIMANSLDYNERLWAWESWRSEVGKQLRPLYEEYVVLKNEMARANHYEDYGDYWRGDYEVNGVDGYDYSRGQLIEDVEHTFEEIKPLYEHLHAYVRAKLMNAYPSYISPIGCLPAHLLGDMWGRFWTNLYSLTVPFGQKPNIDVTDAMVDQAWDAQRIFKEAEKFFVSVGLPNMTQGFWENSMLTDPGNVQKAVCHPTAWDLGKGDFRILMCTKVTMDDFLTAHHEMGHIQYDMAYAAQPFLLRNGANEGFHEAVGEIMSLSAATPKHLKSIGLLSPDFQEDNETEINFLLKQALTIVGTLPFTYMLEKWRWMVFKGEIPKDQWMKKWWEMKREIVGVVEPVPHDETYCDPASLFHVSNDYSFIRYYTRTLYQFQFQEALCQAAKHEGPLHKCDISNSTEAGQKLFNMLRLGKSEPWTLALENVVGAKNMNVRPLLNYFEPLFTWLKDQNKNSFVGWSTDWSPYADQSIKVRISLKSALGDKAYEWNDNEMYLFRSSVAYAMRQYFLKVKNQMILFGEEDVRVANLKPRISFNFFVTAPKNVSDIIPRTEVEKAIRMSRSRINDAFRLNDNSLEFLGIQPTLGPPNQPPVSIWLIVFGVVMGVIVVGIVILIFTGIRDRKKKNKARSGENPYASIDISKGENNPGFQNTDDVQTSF

[5] = Acute toxicity test in mice (single gavage, 14-day observation); format: in vivo; conditions: for mortality rate of animals: 14 days observation
Protocol: Seventy ICR mice, weighing 17-21 g, were randomly divided into 7 groups according to fasting body weight: a normal control group and 6 dose groups of 475, 633, 844, 1125, 1500 and 2000 mg of the test drug (compound 4)/kg, 10 mice in each group, 50/50 male and female. After fasting for about 15 h, each dosing group was administered once by gavage in a volume of 40 ml/kg, and the control group was gavaged with an equal volume of 0.5% sodium carboxymethylcellulose solution once/day, and the animals were observed continuously for 14 days after administration of the drug to observe the death of the animals.
Thirty ICR mice, weighing 17-21 g, were randomly divided into three groups according to their fasting body weight: a normal control group and 2000 mg and 4000 mg of test drug (Compound 12)/kg dose group, 10 mice in each group, 50/50 male and female. After fasting for about 15 h, each dosing group was given the drug once by gavage in a volume of 40 ml/kg, and the control group was given an equal volume of 0.5% sodium carboxymethylcellulose solution by gavage once/day, and the deaths of the animals were observed continuously for 14 days after the administration of the drug.

[6] = 7.5 mg/kg gavage once a day for 4 days
[7] = Table 7 (Example 18), 3.75 mg/kg/d gavage for 4 days
[8] = Table 7 (Example 18), 7.5 mg/kg/d gavage for 4 days
[9] = Table 7 (Example 18), 15 mg/kg/d gavage for 4 days
[10] = Table 11 (Example 24), 7.5 mg/kg/d gavage for 4 days
[11] = Table 11 (Example 24), 15 mg/kg/d gavage for 4 days
[12] = dose groups of 1125 mg drug/kg and above

O=c1c(-c2ccccc2)coc2cc(OCCNC3CC3)ccc12 [Compound 4]
inhibition in vivo at 25 mg/kg ([1]; Influenza A virus, H1N1, po, 96 h, Table 1 (Example 13), 25 mg/kg gavage once a day for 4 days, read-out: inhibition rate (%)): 23.7%
inhibition in vivo at 50 mg/kg ([1]; Influenza A virus, H1N1, po, 96 h, Table 1 (Example 13), 50 mg/kg gavage once a day for 4 days, read-out: inhibition rate (%)): 39.3%
inhibition in vivo at 20 mg/kg ([1]; Influenza A virus, H1N1, po, 96 h, Table 2 (Example 14), 20 mg/kg gavage once a day for 4 days, read-out: inhibition rate (%)): 15.1%
inhibition in vivo at 40 mg/kg ([1]; Influenza A virus, H1N1, po, 96 h, Table 2 (Example 14), 40 mg/kg gavage once a day for 4 days, read-out: inhibition rate (%)): 54%
lung index ([1]; Table 1 (Example 13), 25 mg/kg gavage once a day for 4 days): 1.09 ± 0.13
lung index ([1]; Table 1 (Example 13), 50 mg/kg gavage once a day for 4 days): 1.01 ± 0.12
lung index ([1]; Table 2 (Example 14), 20 mg/kg gavage once a day for 4 days): 1.04 ± 0.12
lung index ([1]; Table 2 (Example 14), 40 mg/kg gavage once a day for 4 days): 0.89 ± 0.20
inhibition rate % [2, 6]: 23.91%
lung index [2, 6]: 0.98 ± 0.11
lung index ([2]; 15 mg/kg gavage once a day for 4 days): 0.83 ± 0.10
inhibition rate % ([2]; 15 mg/kg gavage once a day for 4 days, 15 mg/kg): 54.04% and 60.27%
inhibition in vivo at 40 mg/kg/day ([3]; Human coronavirus 229E, in Mus musculus, po, 96 h, Table 4 (Example 15), 40 mg/kg/d gavage for 4 days, read-out: inhibition rate (%)): 41.9%
inhibition in vivo at 50 mg/kg/day ([3]; Human coronavirus 229E, in Mus musculus, po, 96 h, Table 4 (Example 15), 50 mg/kg/d gavage for 4 days, read-out: inhibition rate (%)): 41%
inhibition in vivo at 7.5 mg/kg/day ([3]; Human coronavirus 229E, in Mus musculus, po, 96 h, Table 5 (Example 16), 7.5 mg/kg/d gavage for 4 days, read-out: inhibition rate (%)): 44.3%
inhibition in vivo at 15 mg/kg/day ([3]; Human coronavirus 229E, in Mus musculus, po, 96 h, Table 5 (Example 16), 15 mg/kg/d gavage for 4 days, read-out: inhibition rate (%)): 76.5%
inhibition in vivo at 30 mg/kg/day ([3]; Human coronavirus 229E, in Mus musculus, po, 96 h, Table 5 (Example 16), 30 mg/kg/d gavage for 4 days, read-out: inhibition rate (%)): 86.5%
inhibition in vivo at 7.5 mg/kg/day ([3]; Human coronavirus 229E, in Mus musculus, po, 96 h, Table 10 (Example 23), 7.5 mg/kg/d gavage for 4 days, read-out: inhibition rate (%)): 50%
lung index ([3]; Table 4 (Example 15), 40 mg/kg/d gavage for 4 days): 0.76 ± 0.02 g lung weight × 100/g body weight
lung index ([3]; Table 4 (Example 15), 50 mg/kg/d gavage for 4 days): 0.76 ± 0.08 g lung weight × 100/g body weight
lung index ([3]; Table 5 (Example 16), 7.5 mg/kg/d gavage for 4 days): 0.71 ± 0.11 g lung weight × 100/g body weight
lung index ([3]; Table 5 (Example 16), 15 mg/kg/d gavage for 4 days): 0.67 ± 0.08 g lung weight × 100/g body weight
lung index ([3]; Table 5 (Example 16), 30 mg/kg/d gavage for 4 days): 0.66 ± 0.05 g lung weight × 100/g body weight
lung index ([3]; Table 10 (Example 23), 7.5 mg/kg/d gavage for 4 days): 0.81 ± 0.03 g lung weight × 100/g body weight
inhibition rate % (human coronavirus OC43; 3.75 mg/kg/d gavage for 4 days): 33.28%
lung index (human coronavirus OC43; 3.75 mg/kg/d gavage for 4 days): 0.81 ± 0.08 g lung weight × 100/g body weight
inhibition rate % (human coronavirus OC43; 7.5 mg/kg/d gavage for 4 days): 32.42%
lung index (human coronavirus OC43; 7.5 mg/kg/d gavage for 4 days): 0.82 ± 0.05 g lung weight × 100/g body weight
inhibition rate % (human coronavirus OC43; 15 mg/kg/d gavage for 4 days): 47.43%
lung index (human coronavirus OC43; 15 mg/kg/d gavage for 4 days): 0.79 ± 0.10 g lung weight × 100/g body weight
inhibition rate % [4, 7]: 18.11%
lung index [4, 7]: 0.73 ± 0.07 lung weight/100 g body weight
inhibition rate % [4, 8]: 26.20%
lung index [4, 8]: 0.72 ± 0.05 lung weight/100 g body weight
inhibition rate % [4, 9]: 46.39%
lung index [4, 9]: 0.70 ± 0.05 lung weight/100 g body weight
inhibition rate % [4, 10]: 54.48%
lung index [4, 10]: 0.77 ± 0.04 Lung weight * 100/body weight
inhibition rate % [4, 11]: 45.45%
lung index [4, 11]: 0.78 ± 0.04 Lung weight * 100/body weight
inhibition at 1.95 µg/mL (SARS-CoV-2; Severe acute respiratory syndrome coronavirus 2, Vero C1008, drug concentration 1.95 μg/mL): 6.67 ± 2.89%
inhibition at 3.9 µg/mL (SARS-CoV-2; Severe acute respiratory syndrome coronavirus 2, Vero C1008, drug concentration 3.9 μg/mL): 25 ± 5%
inhibition at 7.8 µg/mL (SARS-CoV-2; Severe acute respiratory syndrome coronavirus 2, Vero C1008, drug concentration 7.8 μg/mL): 76.7 ± 2.89%
inhibition at 15.6 µg/mL (SARS-CoV-2; Severe acute respiratory syndrome coronavirus 2, Vero C1008, drug concentration 15.6 μg/mL): 90 ± 5%
Kd (ACE2 receptor): 1.07 µM
mortality rate of animals ([5]; 475 mg/kg single gavage): 0%
mortality rate of animals ([5]; 633 mg/kg single gavage): 0%
mortality rate of animals ([5]; 844 mg/kg single gavage): 0%
mortality rate of animals ([5]; 1125 mg/kg single gavage): 20%
mortality rate of animals ([5]; 1500 mg/kg single gavage): 80%
mortality rate of animals ([5]; 2000 mg/kg single gavage): 100%
LD50 ([5]; Bliss method, single gavage, mice): 1299.054 mg of drug/kg
maximum non-adverse effect dose ([5]; both, ICR, mouse, in vivo, 14 days): 475 mg of drug/kg
peak of the deaths after the drug [5, 12]: 24 to 48 h
time of animal deaths after the drug [5, 12]: ≤ 4 days
maximum non-lethal dose ([5]; single gavage, mice): 844 mg of drug/kg
